In patent US4937249A, “Imide derivatives and their pharmaceutical use” (Sumitomo Pharmaceuticals Company, Limited, priority 1987, dated 1990):
Like-named read-outs stand apart in the source and are kept apart here.

Experiments:
[1] = tested on: climbing behavior induced by apomorphine in mice; assay: Anti-climbing activity (climbing behavior induced by apomorphine in mice); format: in vivo, mice (dd strain male); conditions: Mus musculus, po
Text: This activity was examined through the anticlimbing behavior test, i.e. the test for suppressing the climbing behavior induced by apomorphine in mice. A designed amount of the test compound was orally administered to several groups of dd strain male mice (bodyweight, 20 to 25 g; one group, 5 mice), and each of the animals was charged in an individual column cage of 12 cm in diameter and 14 cm in height having metal poles (each pole, 2 mm in diameter) vertically installed and arranged along the periphery with intervals of 1 cm. […]
0 All the paws were on the floor
1 Only forepaws seized the pole of the cage
2 All the paws seized the pole of the cage;
climbing behavior observed discontinu-
3 Continuous climbing behavior observed

5-HT2 receptors = assay: Anti-head twitching activity (anti-5-HT2 activity; 5-methoxytryptamine-induced head twitches in mice); format: in vivo, mice (dd strain male); conditions: Mus musculus, po, nialamide 30 mg/kg i.p., 5-MT 2.5 mg/kg i.v., head twitches for 3 minutes
Method: It is known that the efficacy on the negative symptom can be evaluated through anti-5-hydroxytryptamine 2 (5-HT2) activity. […] Based on the above knowledges, test for measurement of head twitches in mice was carried out for evaluation of the anti-5-HT2 activity.

dopamine D2 receptor = molecular target: T1, dopamine D2 receptor (Bos taurus, UniProt P20288); assay: Dopamine D2 receptor binding assay (displacement of [3H] spiperone, membrane fractions of corpus striatum); set-up: species or system bovine
T1 construct: from tissue; host or cells: bovine corpus striatum, washed membrane fractions
T1 sequence (P20288 whole entry): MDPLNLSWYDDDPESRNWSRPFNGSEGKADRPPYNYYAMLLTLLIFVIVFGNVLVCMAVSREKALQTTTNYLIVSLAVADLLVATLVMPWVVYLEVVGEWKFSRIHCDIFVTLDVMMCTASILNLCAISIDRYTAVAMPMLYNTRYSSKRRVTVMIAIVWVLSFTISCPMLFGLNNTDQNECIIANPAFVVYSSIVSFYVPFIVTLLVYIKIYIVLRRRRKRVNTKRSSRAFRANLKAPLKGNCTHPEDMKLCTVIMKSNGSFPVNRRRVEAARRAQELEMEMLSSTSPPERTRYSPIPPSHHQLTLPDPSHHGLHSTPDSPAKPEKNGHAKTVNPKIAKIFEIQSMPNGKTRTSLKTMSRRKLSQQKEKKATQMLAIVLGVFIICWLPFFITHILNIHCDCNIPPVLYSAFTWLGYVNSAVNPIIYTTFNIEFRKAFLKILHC
Method: Fresh corpus striatum taken out from bovine brain was homogenized in a 20-fold dilution of Tris-HCl buffer solution (pH, 7.4; 0.05 M) and centrifuged (50,000×g) for 10 minutes to give the membrane fractions, which were washed with the same volume of the buffer solution twice to give the membrane fractions for assay.
Number of bindings specific to the D2 receptor in [^3 H] spiperone in a designed concentration of the test compound was measured according to the following equation and the IC50 and Ki was determined thereon on the basis of a hill plot: [formula] l: concentration of [^3 H] spiperone on assay KD : dissociation constant of [^3 H] spiperone

[2] = 1 hr, apomorphine 1.0 mg/kg s.c., mice, read-out: ED50 (p.o.) 1 hr

| Compound | ED50 ([1]; 1 h, read-out: ED50 (p.o.) 1 hr) [mg/kg] | ED50 ([1]; 4 h, read-out: ED50 (p.o.) 4 hrs) [mg/kg] | ED50 (5-HT2 receptors) [mg/kg] | Ki (dopamine D2 receptor; [3H] spiperone 1 nM, 37° C., 30 minutes, bovine corpus striatum membranes, read-out: Ki) [pM] | ED50 [1, 2] [mg/kg] | ED50 ([1]; 4 hrs, apomorphine 1.0 mg/kg s.c., mice, read-out: ED50 (p.o.) 4 hrs) [mg/kg] | Ki (dopamine D2 receptor) [pM] |
| --- | --- | --- | --- | --- | --- | --- | --- |
| CN(C)CCCN1c2ccccc2Sc2ccc(Cl)cc21 [Chlorpromazine, 2-chloro-10-(3-dimethylaminopropyl)-phenothiazine] | 1.8 | 8.8 |  |  |  |  |  |
| O=C1C2CCCCC2C(=O)N1CCCCN1CCC(c2noc3cc(F)ccc23)CC1 (stereo not drawn) [Example 1, N-[4-{4-(6-Fluoro-1,2-benzisoxazol-3-yl)piperidinyl}butyl]cyclohexane-1,2-dicarboximide] |  |  | 0.3 to 1 | 370 | 0.92 | 2.3 |  |
| O=C1CC2(CCCC2)CC(=O)N1CCCCN1CCN(c2nsc3ccccc23)CC1 [Tiaspirone, 8-[4-(3-benzisothiazolyl)-1-piperazinylbutyl]-8-azaspiro[4,5]decane-7,9-dione] |  |  | 4 |  | 9.4 |  | 500 |
